For assay [1] the following is noted: FDA statistics, third stage of clinical tests; cited from earlier work.
A further assay deals with HeLa cells. In words: Effect of Antican on HeLa cells. The class given is cell-based. The source says: In establishing the minimum concentration of Antican that could slow the growth of cells, a comparison was made between the number of surviving cells and the concentration of Antican in the solution.
Assay [2] has as its system Ehrlich's ascites adenocarcinoma. In words: Antitumor activity in Ehrlich's ascites adenocarcinoma. The format is in vivo, Barbados mice. The settings on record: experimental animals, n = 10. The protocol:
The antitumor activity of the compositions were studied in models of Ehrlich's ascites carcinoma in young Barbados mice of both sexes with weights between 15-17 g (68 individuals), which were kept on a vivarium diet.
45 mice were inoculated from a mouse with adenocarcinoma using an insulin syringe with 0.1 mL ascitic fluid in the region of the liver.
Ten mice were administered Antican (see Table 8).

For a further assay, the system named is benzidine skin sarcoma. The assay can be described thus: Anticancer activity on benzidine skin sarcoma. The class given is in vivo, Barbados mice. As to the method: Before applying it to the silica gel, 7 mL of a solution of 2% benzidine and 0.9% sodium chloride were added until an opalescent suspension was formed (1 g silica gel for 5 mL NaCl solution). Twenty-five Barbados mice of both sexes with weight of 18-20 g that were kept on a vivarium diet were administered benzidine and phorbol acetate immobilized on silica gel subcutaneously near the neck. After two weeks, 18 animals had developed tumors of different sizes in the form of a small bump on the neck near the silica gel granulomas. Each group of animals was administered the corresponding compound parenterally, at a dose of 100 μg/kg weight, twice a day for two weeks, starting 16 days after administration of the carcinogen.

The source of these data is patent publication US20140220556A1, “Method of Design and Synthesis of a New Drug” (priority 2013, published 2014).

For `CN1CC[C@]23c4c5ccc(O)c4O[C@H]2[C@@H](O)C=C[C@H]3[C@H]1C5` [morphine], in assay [1], the average effectiveness is recorded as 75%.

In the case of `CC(=O)O[C@@]12CO[C@@H]1C[C@H](O)[C@@]1(C)C(=O)[C@H](O)C3=C(C)[C@@H](OC(=O)[C@H](O)[C@@H](NC(=O)OC(C)(C)C)c4ccccc4)C[C@@](O)([C@@H](OC(=O)c4ccccc4)[C@H]21)C3(C)C` [Taxotere], the “Number of Live Cells after Incubation, %” value in the assay with HeLa cells (dose 2 μg/mL) is on record as 100%; in the assay on HeLa cells (dose 4 μg/mL) it was 98%; with HeLa cells (dose 6 μg/mL) it was 97%; with HeLa cells (dose 8 μg/mL), 89%; in the assay with HeLa cells (dose 10 μg/mL), 82%; in the assay with HeLa cells (dose 12 μg/mL) it was 94%. Moreover, the “Number of Live Cells after Incubation, ±1000” value is 150000 Millions in the assay with HeLa cells (dose 2 μg/mL); 150000 Millions in the assay with HeLa cells (dose 4 μg/mL); 145000 Millions in the assay with HeLa cells (dose 6 μg/mL); 135000 Millions in the assay on HeLa cells (dose 8 μg/mL); 130000 Millions in the assay on HeLa cells (dose 10 μg/mL); 153000 Millions with HeLa cells (dose 12 μg/mL). Also, the “Time of Death of Animals after the First Injection, Average Value” in assay [2] (Liposomes +) worked out at 15 ± 0.5 days; in assay [2] (Liposomes −) it was 14 ± 0.12 days. In the assay on benzidine skin sarcoma (100 μg/kg parenterally twice a day for two weeks, n = 7), the “Weight of Animal, After Treatment” value worked out at 23 ± 1.1 g. For the same compound, the mice died in the assay with benzidine skin sarcoma (after treatment, n = 7) was 2. The “Weight of Animal, Before Treatment” value in the assay with benzidine skin sarcoma (before treatment, n = 7) worked out at 28 ± 1.2 g. In addition, in the assay on benzidine skin sarcoma (benzidine skin sarcoma, n = 10), the “Animal Survival” value was 28 ± 1.1 days.
